According to patent US5641760A, “Method of treating candida infection” (Pence, Inc., priority 1994, dated 1997):

Legend:
[1] = tested on: Candida albicans strain #40 fimbriae (enriched fimbriae EF, 66 kDa fimbrial subunit/adhesin protein); assay: Thin-layer chromatography plate binding assay of fimbriae to glycosphingolipids; conditions: 10 μg GSL per spot; 100 μg EF/ml; detected with mAb Fm16
Method: Bound fimbriae on the TLC plates were visualized with a Protein G affinity-purified anti-C. albicans fimbriae monoclonal antibody, Fm16, obtained from ascites tumor in Balb/c mice as described below and a goat anti-mouse IgG alkaline phosphatase. […] (Lane 2).
The thin-layer chromatography (TLC) plate binding assay was performed as described by Baker et al. (1) with minor modifications. Aluminum-backed silica gel Si60 high performance TLC plates (Merck Kieselgel Si60, no fluorescence indicator, E. Merck, Darmstadt, Germany) were cut to produce 8×2.5 cm plates which were chromatographed with 100% methanol to the top of the plate to remove impurities and the plates were air dried. Glycosphingolipids (GSLs) (10 μg of each GSL) were loaded 1.0 cm above the base of the plate. The following glycosphingolipids purchased from Sigma Co. (St. Louis, Mo.) were used: mono-sialoganglioside (M-GM1), asialoganglioside GM1 (asialo-GM1), asialoganglioside GM2 (asialo-GM2), lactosylcerebroside (LCS), ceramide trihexoside (CTH). GSLs were separated on the TLC plates in chloroform-methanol-water (65:35:8, v/v/v) and air dried. One set of plates was sprayed with 10% sulphuric acid in ethanol and heated at 100°-150° C. for 5-10 min to char the GSLs for visual detection, and the other set was used for the fimbrial binding assay. The four corners of the plate were bent to 90° and the remainder of the assay was done with the TLC plates inverted in all solutions and at room temperature in an incubator shaker (model G25 Gyroshaker, New Brunswick Scientific, New Jersey, U.S.A.) at 20 rpm agitation. The TLC plate was blocked with 50 mM tris-hydroxy-methyl aminomethane pH 7.5 containing 150 mM NaCl (TBS), 0.25% (w/v) gelatin, 3% (w/v) BSA, 5 mM EDTA and 0.05% (v/v) Nonidet P40 in a glass petri dish for 2 hr at room temperature. The blocking solution was aspirated and 10 ml of EF (100 μg EF/ml in 100 mM TBS, pH 7.5) was then added. The fimbriae were allowed to bind to GSLs for 2 hours at room temperature. The plates were gently washed (2×5 min) with 10 ml of 100 mM TBS containing 0.1% (v/v) Tween 20 (TBST). The murine anti-EF monoclonal antibody, Fm16, was diluted 1:200 with TBST and 10 ml was added to the TLC plates. The solution was incubated for 1 hour at room temperature. Unbound antibodies were removed by washing the plates with 10 ml of TBST (2×5 min). The plate was then incubated with 10 ml of goat anti-mouse immunoglobulin G alkaline phosphatase conjugate (Jackson Laboratories) diluted 1:5,000 with TBST for 1 hour at room temperature. The plates were washed (2×5 min.) with 10 ml of TBST. The alkaline phosphatase activity was localized with Nitro Blue Tetrazolium chloride (NBT) and 5-bromo-4-chloro-3-indolyl phosphate (BCIP) dissolved in 100 mM Tris buffer, pH 9.5 containing 100 mM NaCl and 5 mM MgCl2. Color development was quenched by rinsing the TLC plate with deionized water and submerging the plate into a 150 mM EDTA solution pH 8.0 for 3-5 min. The plates were air dried, stored in plastic in the dark until they were photographed.

[2] = tested on: Candida albicans fimbriae (binding to human BECs); assay: Inhibition of fimbriae binding to human buccal epithelial cells (BECs); format: cell-based; conditions: fimbriae 50 μg preincubated with competitor 1 h at 37° C., 2.0×10^5 BECs
Method: The percent inhibition is the inhibition of binding in the presence of the competing antigens with respect to binding observed in the absence of any competitors.
The fimbrial adherence assay was performed using a Manifold filtration apparatus equipped with individual vacuum stopcocks (Model FH 225V, Hoefer Scientific Instruments). Polycarbonate filters, 12 μm pore size (Nucleopore Costar Corp.), were pre-incubated overnight at 4° C. with 50 ml of PBS pH 7.2, containing 0.45% (v/v) Tween 20. The pretreated filters were placed into each chamber and washed with 2.5 ml of PBS. 1 ml containing 2.0×10^5 BECs in PBS was added to each chamber. Enriched fimbriae (100 μl/chamber, ranging from 0 to 80 μg fimbriae protein/ml) in PBS containing 0.05% (v/v) Tween-20 was added to each chamber and incubated with the BECs for 1.5 hours at room temperature. Unbound fimbriae were removed with washes of 2.5 ml of PBS. Mouse anti-C. albicans fimbriae monoclonal antibody (ascites fluid diluted 1:3000 with PBS) was added to the BECs (1.2 ml/chamber) and incubated for 1.5 hour at room temperature. BECs were washed five times with 2.5 ml of PBS. Goat anti-mouse IgG(H+L)-peroxidase conjugates (Jackson Laboratories) diluted 1:5000 with PBS was added (1.0 ml/chamber) and incubated for another hour at room temperature. The cells were then washed seven times with 2.5 ml/chamber of PBS. The polycarbonate filters containing BECs were removed from the filtration manifold and placed into glass scintillation vials. The horseradish peroxidase substrate solution (ABTS) was added to each vial (1 ml/vial) and incubated for 30 min at room temperature on a shaker at 100 rpm. The reaction was stopped by the addition of 4 mM sodium azide (200 μl/vial). The substrate solution was pipetted into Eppendorf tubes and centrifuged at 5,000 g for 3 minutes. Aliquots of the supernatants were pipetted into microtiter wells (200 μl/well) and the resulting absorbance at 405 nm was recorded with a Titertek Multiskan Plus microplate recorder. […]

Substance	Binding of C. albicans fimbriae to glycosphingolipid on TLC plate [1]	Inhibition of C. albicans fimbriae binding to BECs [2]	Inhibition of C. albicans fimbriae binding to BECs ([2]; competitor concentration not stated)
ceramide trihexoside [CTH, ceramide trihexoside [aGal(1-4)βGal(1-4)βGlc(1-1)Cer]]	failed to bind	failed to inhibit	
gangliotetraosylceramide: βGal(1-3)βGalNAc(1-4)βGal(1-4)βGlc(1-1)Cer [asialo-GM1]	bind specifically		80%
